Tests used:
[1] = target: T1, Nucleosome-remodeling factor subunit BPTF (Homo sapiens, UniProt Q12830); test: Alphascreen assay. Binding to FALZA (domain start/stop: S2791-H2911) by alphascreen assay
Peregrin (Homo sapiens) [2] = target: Peregrin (Homo sapiens) (UniProt P55201); details: Compound concentration 10.0 uM, Protein concentration 2.0 uM
[3] = target: SWI/SNF-related matrix-associated actin-dependent regulator of chromatin subfamily A member 2 (Homo sapiens) (UniProt P51531); details: Compound concentration 10.0 uM, Protein concentration 2.0 uM
[4] = target: Transcription initiation factor TFIID subunit 1 (Homo sapiens) (UniProt P21675); details: Compound concentration 10.0 uM, Protein concentration 2.0 uM
[5] = target: Histone acetyltransferase KAT2B (Homo sapiens) (UniProt Q92831); details: Compound concentration 10.0 uM, Protein concentration 2.0 uM
[6] = target: Transcription intermediary factor 1-alpha (Homo sapiens) (UniProt O15164); details: Compound concentration 10.0 uM, Protein concentration 2.0 uM
[7] = target: Protein polybromo-1 (Homo sapiens) (UniProt Q86U86); details: Compound concentration 10.0 uM, Protein concentration 2.0 uM
[8] = target: Transcription initiation factor TFIID subunit 1-like (Homo sapiens) (UniProt Q8IZX4); details: Compound concentration 10.0 uM, Protein concentration 2.0 uM
[9] = target: Bromodomain-containing protein 3 (Homo sapiens) (UniProt Q15059); details: Compound concentration 10.0 uM, Protein concentration 2.0 uM
[10] = target: Bromodomain-containing protein 2 (Homo sapiens) (UniProt P25440); details: Compound concentration 10.0 uM, Protein concentration 2.0 uM
[11] = target: ATPase family AAA domain-containing protein 2B (Homo sapiens) (UniProt Q9ULI0); details: Compound concentration 10.0 uM, Protein concentration 2.0 uM
[12] = target: T2, Chromatin remodeling regulator CECR2 (Homo sapiens, UniProt Q9BXF3); details: Compound concentration 10.0 uM, Protein concentration 2.0 uM
[13] = target: CREB-binding protein (Homo sapiens) (UniProt Q92793); details: Compound concentration 10.0 uM, Protein concentration 2.0 uM
[14] = target: Protein polybromo-1 (Homo sapiens) (UniProt Q86U86); details: Compound concentration 10.0 uM, Protein concentration 2.0 uM; remark: listed apart in the source
[15] = target: Bromodomain-containing protein 7 (Homo sapiens) (UniProt Q9NPI1); details: Compound concentration 10.0 uM, Protein concentration 2.0 uM
[16] = target: Bromodomain-containing protein 9 (Homo sapiens) (UniProt Q9H8M2); details: Compound concentration 10.0 uM, Protein concentration 2.0 uM
[17] = target: Bromodomain adjacent to zinc finger domain protein 2A (Homo sapiens) (UniProt Q9UIF9); details: Compound concentration 10.0 uM, Protein concentration 2.0 uM
[18] = target: Transcription intermediary factor 1-beta (Homo sapiens) (UniProt Q13263); details: Compound concentration 10.0 uM, Protein concentration 2.0 uM
[19] = target: Histone-lysine N-methyltransferase ASH1L (Homo sapiens) (UniProt Q9NR48); details: Compound concentration 10.0 uM, Protein concentration 2.0 uM
[20] = target: Protein polybromo-1 (Homo sapiens) (UniProt Q86U86); details: Compound concentration 10.0 uM, Protein concentration 2.0 uM; remark: listed apart in the source
[21] = target: Bromodomain-containing protein 1 (Homo sapiens) (UniProt O95696); details: Compound concentration 10.0 uM, Protein concentration 2.0 uM
[22] = target: Transcription initiation factor TFIID subunit 1-like (Homo sapiens) (UniProt Q8IZX4); details: Compound concentration 10.0 uM, Protein concentration 2.0 uM; remark: listed apart in the source
[23] = target: SWI/SNF-related matrix-associated actin-dependent regulator of chromatin subfamily A member 4 (Homo sapiens) (UniProt P51532); details: Compound concentration 10.0 uM, Protein concentration 2.0 uM
[24] = target: Histone acetyltransferase p300 (Homo sapiens) (UniProt Q09472); details: Compound concentration 10.0 uM, Protein concentration 2.0 uM
[25] = target: Bromodomain testis-specific protein (Homo sapiens) (UniProt Q58F21); details: Compound concentration 10.0 uM, Protein concentration 2.0 uM
[26] = target: T2, Chromatin remodeling regulator CECR2; test: Alphascreen assay. Binding to CECR2A (domain start/stop: P420-D543) by alphascreen assay
[27] = target: Tyrosine-protein kinase BAZ1B (Homo sapiens) (UniProt Q9UIG0); details: Compound concentration 10.0 uM, Protein concentration 2.0 uM
[28] = target: T2, Chromatin remodeling regulator CECR2; test: Alphascreen assay. Binding to CECR2A (domain start/stop: P420-H538) by alphascreen assay
[29] = target: Protein polybromo-1 (Homo sapiens) (UniProt Q86U86); details: Compound concentration 10.0 uM, Protein concentration 2.0 uM; remark: listed apart in the source
[30] = target: Protein polybromo-1 (Homo sapiens) (UniProt Q86U86); details: Compound concentration 10.0 uM, Protein concentration 2.0 uM; remark: listed apart in the source
[31] = target: Transcription initiation factor TFIID subunit 1 (Homo sapiens) (UniProt P21675); details: Compound concentration 10.0 uM, Protein concentration 2.0 uM; remark: listed apart in the source
[32] = target: Bromodomain testis-specific protein (Homo sapiens) (UniProt Q58F21); details: Compound concentration 10.0 uM, Protein concentration 2.0 uM; remark: listed apart in the source
[33] = target: PH-interacting protein (Homo sapiens) (UniProt Q8WWQ0); details: Compound concentration 10.0 uM, Protein concentration 2.0 uM
Peregrin = Peregrin (Homo sapiens, UniProt P55201); test: Alphascreen assay. Binding to BRPF1B (domain start/stop: M626-G740) by alphascreen assay
[34] = target: Bromodomain-containing protein 3 (Homo sapiens) (UniProt Q15059); details: Compound concentration 10.0 uM, Protein concentration 2.0 uM; remark: listed apart in the source
[35] = target: Histone acetyltransferase KAT2A (Homo sapiens) (UniProt Q92830); details: Compound concentration 10.0 uM, Protein concentration 2.0 uM
[36] = target: Bromodomain and PHD finger-containing protein 3 (Homo sapiens) (UniProt Q9ULD4); details: Compound concentration 10.0 uM, Protein concentration 2.0 uM
Peregrin (Homo sapiens) [37] = target: Peregrin (Homo sapiens) (UniProt P55201); details: Compound concentration 10.0 uM, Protein concentration 2.0 uM; remark: listed apart in the source
[38] = target: Nuclear body protein SP140-like protein (Homo sapiens) (UniProt Q9H930); details: Compound concentration 10.0 uM, Protein concentration 2.0 uM
[39] = target: Bromodomain-containing protein 2 (Homo sapiens) (UniProt P25440); details: Compound concentration 10.0 uM, Protein concentration 2.0 uM; remark: listed apart in the source
[40] = target: Bromodomain and WD repeat-containing protein 3 (Homo sapiens) (UniProt Q6RI45); details: Compound concentration 10.0 uM, Protein concentration 2.0 uM
[41] = target: Bromodomain and WD repeat-containing protein 1 (Homo sapiens) (UniProt Q9NSI6); details: Compound concentration 10.0 uM, Protein concentration 2.0 uM
[42] = target: ATPase family AAA domain-containing protein 2 (Homo sapiens) (UniProt Q6PL18); details: Compound concentration 10.0 uM, Protein concentration 2.0 uM
[43] = target: Protein polybromo-1 (Homo sapiens) (UniProt Q86U86); details: Compound concentration 10.0 uM, Protein concentration 2.0 uM; remark: listed apart in the source
[44] = target: Histone-lysine N-methyltransferase 2A (Homo sapiens) (UniProt Q03164); details: Compound concentration 10.0 uM, Protein concentration 2.0 uM
[45] = target: Bromodomain adjacent to zinc finger domain protein 2B (Homo sapiens) (UniProt Q9UIF8); details: Compound concentration 10.0 uM, Protein concentration 2.0 uM
[46] = target: T1, Nucleosome-remodeling factor subunit BPTF; details: Compound concentration 10.0 uM, Protein concentration 2.0 uM
[47] = target: Nuclear body protein SP140 (Homo sapiens) (UniProt Q13342); details: Compound concentration 10.0 uM, Protein concentration 2.0 uM
[48] = target: Bromodomain adjacent to zinc finger domain protein 1A (Homo sapiens) (UniProt Q9NRL2); details: Compound concentration 10.0 uM, Protein concentration 2.0 uM
[49] = target: Bromodomain-containing protein 4 (Homo sapiens) (UniProt O60885); details: Compound concentration 10.0 uM, Protein concentration 2.0 uM

Protein polybromo-1 (Homo sapiens), sequence (Q86U86 whole entry): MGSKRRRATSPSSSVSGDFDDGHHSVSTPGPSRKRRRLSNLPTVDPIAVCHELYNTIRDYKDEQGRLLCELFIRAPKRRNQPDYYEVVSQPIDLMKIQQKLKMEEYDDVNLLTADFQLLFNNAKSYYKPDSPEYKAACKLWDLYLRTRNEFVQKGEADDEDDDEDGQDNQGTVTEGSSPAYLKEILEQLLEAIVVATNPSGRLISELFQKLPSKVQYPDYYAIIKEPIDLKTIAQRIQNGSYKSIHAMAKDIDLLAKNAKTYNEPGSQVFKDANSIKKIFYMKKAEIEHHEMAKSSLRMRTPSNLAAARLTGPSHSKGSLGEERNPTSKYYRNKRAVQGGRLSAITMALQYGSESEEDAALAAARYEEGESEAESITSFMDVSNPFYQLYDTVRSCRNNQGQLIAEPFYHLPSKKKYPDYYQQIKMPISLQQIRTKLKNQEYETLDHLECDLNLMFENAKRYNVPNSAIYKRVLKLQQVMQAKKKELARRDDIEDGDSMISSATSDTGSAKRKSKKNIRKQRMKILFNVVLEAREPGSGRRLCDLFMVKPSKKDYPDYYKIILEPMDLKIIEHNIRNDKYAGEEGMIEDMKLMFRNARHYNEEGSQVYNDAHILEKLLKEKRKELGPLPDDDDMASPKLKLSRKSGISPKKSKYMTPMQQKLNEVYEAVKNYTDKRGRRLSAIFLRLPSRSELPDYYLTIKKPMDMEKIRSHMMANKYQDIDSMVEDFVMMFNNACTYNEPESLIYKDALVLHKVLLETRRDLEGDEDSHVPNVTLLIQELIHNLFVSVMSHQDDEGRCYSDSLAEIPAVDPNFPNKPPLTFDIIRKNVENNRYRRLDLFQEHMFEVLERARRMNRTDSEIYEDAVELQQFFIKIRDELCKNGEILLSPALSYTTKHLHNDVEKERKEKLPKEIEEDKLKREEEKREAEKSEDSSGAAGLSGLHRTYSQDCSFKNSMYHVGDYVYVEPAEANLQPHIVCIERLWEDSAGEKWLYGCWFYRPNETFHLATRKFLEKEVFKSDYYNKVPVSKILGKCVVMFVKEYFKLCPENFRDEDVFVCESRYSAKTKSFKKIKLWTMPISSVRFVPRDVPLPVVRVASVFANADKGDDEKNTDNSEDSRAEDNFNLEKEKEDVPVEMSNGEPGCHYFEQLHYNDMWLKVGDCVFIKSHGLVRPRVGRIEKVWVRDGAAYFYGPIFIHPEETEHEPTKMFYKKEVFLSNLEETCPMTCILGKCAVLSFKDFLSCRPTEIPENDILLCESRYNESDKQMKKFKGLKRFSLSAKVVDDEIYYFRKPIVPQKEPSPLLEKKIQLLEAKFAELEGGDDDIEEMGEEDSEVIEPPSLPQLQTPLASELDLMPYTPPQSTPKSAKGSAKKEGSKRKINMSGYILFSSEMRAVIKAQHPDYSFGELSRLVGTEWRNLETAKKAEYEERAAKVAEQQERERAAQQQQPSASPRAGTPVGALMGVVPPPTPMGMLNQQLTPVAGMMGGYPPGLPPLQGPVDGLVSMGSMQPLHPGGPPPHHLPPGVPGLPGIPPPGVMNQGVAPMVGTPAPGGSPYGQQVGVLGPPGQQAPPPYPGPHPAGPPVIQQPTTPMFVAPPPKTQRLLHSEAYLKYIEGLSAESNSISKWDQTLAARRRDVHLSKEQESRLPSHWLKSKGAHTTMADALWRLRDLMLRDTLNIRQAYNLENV
Peregrin (Homo sapiens), sequence (P55201 whole entry): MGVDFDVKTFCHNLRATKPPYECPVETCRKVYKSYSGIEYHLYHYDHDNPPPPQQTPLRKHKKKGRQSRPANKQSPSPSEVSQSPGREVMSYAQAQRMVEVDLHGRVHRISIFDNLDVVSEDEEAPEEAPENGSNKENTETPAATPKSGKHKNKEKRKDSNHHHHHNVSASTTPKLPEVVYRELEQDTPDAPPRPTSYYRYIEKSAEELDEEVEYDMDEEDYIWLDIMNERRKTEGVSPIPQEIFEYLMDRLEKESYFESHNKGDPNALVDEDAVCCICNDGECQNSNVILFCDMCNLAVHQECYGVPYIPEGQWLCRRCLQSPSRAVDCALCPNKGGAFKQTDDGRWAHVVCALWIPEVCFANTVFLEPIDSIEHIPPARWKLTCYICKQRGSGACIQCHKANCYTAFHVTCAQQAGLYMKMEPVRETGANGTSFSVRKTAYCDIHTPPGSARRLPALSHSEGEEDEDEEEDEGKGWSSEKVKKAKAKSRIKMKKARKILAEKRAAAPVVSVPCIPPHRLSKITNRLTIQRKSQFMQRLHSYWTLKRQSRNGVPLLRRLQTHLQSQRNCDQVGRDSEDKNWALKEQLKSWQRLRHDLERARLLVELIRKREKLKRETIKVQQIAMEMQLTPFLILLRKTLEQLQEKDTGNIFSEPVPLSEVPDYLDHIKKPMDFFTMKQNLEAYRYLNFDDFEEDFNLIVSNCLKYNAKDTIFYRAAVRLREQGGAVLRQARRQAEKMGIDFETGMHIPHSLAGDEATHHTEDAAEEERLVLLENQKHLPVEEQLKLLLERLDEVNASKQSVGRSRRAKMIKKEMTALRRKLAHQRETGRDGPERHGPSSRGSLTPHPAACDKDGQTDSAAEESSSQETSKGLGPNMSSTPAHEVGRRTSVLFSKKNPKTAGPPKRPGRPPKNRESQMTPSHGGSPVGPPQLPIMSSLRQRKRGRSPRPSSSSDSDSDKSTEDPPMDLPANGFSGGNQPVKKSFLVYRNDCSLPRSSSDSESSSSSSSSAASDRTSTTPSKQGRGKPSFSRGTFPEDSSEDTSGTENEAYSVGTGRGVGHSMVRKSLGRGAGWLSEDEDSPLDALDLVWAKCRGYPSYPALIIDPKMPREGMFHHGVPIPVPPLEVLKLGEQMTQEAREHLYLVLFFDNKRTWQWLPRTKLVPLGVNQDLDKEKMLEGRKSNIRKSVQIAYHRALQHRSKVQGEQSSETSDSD
Transcription initiation factor TFIID subunit 1-like (Homo sapiens), sequence (Q8IZX4 whole entry): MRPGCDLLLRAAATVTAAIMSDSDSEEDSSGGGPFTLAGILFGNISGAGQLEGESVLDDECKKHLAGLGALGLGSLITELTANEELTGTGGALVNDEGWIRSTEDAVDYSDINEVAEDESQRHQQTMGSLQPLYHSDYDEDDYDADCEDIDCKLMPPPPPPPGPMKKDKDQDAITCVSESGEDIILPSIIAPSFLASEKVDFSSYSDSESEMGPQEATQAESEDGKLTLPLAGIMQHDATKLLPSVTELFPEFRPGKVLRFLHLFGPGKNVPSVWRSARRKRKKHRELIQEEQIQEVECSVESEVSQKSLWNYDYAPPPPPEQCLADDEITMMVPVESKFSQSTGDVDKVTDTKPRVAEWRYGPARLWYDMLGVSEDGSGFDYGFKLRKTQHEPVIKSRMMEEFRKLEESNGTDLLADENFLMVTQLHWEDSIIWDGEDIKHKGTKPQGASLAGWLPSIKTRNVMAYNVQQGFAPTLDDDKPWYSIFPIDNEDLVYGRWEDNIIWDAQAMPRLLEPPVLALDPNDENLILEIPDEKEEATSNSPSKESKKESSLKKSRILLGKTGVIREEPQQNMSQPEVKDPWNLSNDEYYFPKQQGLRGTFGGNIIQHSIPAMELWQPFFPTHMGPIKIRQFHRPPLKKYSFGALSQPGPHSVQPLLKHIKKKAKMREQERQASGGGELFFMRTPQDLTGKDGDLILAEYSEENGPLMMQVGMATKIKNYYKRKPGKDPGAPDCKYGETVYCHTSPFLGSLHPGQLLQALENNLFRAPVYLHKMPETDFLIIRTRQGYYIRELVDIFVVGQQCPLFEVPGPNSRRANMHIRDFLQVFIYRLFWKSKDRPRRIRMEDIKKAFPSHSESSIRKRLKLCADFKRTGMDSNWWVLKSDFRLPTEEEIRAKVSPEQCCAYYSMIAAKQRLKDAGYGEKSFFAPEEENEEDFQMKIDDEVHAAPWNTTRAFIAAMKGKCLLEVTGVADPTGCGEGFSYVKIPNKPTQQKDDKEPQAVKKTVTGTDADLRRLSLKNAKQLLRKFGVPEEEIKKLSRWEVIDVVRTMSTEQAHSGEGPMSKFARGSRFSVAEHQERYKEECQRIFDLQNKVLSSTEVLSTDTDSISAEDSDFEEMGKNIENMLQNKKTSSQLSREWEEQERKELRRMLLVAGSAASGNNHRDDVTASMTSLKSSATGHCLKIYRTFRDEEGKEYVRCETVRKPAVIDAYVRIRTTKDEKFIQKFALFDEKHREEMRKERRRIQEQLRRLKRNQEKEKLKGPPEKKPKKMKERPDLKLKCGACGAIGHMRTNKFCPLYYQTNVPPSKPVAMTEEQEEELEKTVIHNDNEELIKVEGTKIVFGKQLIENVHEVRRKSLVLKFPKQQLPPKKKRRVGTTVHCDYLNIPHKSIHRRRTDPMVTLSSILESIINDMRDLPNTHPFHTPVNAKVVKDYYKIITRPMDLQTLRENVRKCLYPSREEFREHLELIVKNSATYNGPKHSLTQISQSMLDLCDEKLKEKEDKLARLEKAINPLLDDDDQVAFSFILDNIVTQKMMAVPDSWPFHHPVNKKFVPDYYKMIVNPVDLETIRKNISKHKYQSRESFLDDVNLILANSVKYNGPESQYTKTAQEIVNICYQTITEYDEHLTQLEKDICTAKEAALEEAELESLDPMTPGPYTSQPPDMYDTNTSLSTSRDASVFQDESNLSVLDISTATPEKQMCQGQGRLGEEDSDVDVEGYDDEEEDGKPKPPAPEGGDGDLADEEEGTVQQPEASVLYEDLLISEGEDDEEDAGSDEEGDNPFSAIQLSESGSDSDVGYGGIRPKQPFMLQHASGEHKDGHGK
Peregrin, sequence (P55201 whole entry): as the sequence (P55201 whole entry) above

IC50 [1]: 1460 nM
ΔTm (Peregrin (Homo sapiens) [2]): 0.16 °C
ΔTm [3]: 0.87 °C
ΔTm [4]: 1.25 °C
ΔTm [5]: 0.62 °C
ΔTm [6]: 1.38 °C
ΔTm [7]: 0.34 °C
ΔTm [8]: 0.73 °C
ΔTm [9]: 0.37 °C
ΔTm [10]: 0.54 °C
ΔTm [11]: 0.82 °C
ΔTm [12]: 12.6 °C
ΔTm [13]: 0.36 °C
ΔTm [14]: 0.63 °C
ΔTm [15]: 1.3 °C
ΔTm [16]: 0.96 °C
ΔTm [17]: 0.14 °C
ΔTm [18]: 1.37 °C
ΔTm [19]: 0.48 °C
ΔTm [20]: 0.88 °C
ΔTm [21]: 0.34 °C
ΔTm [22]: 1.56 °C
ΔTm [23]: 1.26 °C
ΔTm [24]: 0.85 °C
ΔTm [25]: 0.51 °C
IC50 [26]: 37.5 nM
ΔTm [27]: -0.35 °C
IC50 [28]: 19.3 nM
ΔTm [29]: -0.21 °C
ΔTm [30]: 0.51 °C
ΔTm [31]: 1.09 °C
ΔTm [32]: -0.15 °C
ΔTm [33]: -0.17 °C
IC50 (Peregrin): 4400 nM
ΔTm [34]: 0.35 °C
ΔTm [35]: 1.2 °C
ΔTm [36]: 0.48 °C
ΔTm (Peregrin (Homo sapiens) [37]): 0.38 °C
ΔTm [38]: 0.62 °C
ΔTm [39]: 0.39 °C
ΔTm [40]: -0.86 °C
ΔTm [41]: 1.71 °C
ΔTm [42]: 1.07 °C
ΔTm [43]: 0.48 °C
ΔTm [44]: 0.08 °C
ΔTm [45]: 0.4 °C
ΔTm [46]: 1.67 °C
ΔTm [47]: 0.58 °C
ΔTm [48]: -0.77 °C
ΔTm [49]: 1.85 °C
Structure (SMILES): CCCS(=O)(=O)c1nc(NC2CC2)cc(-c2ccc3c(ccn3C3CC(C)(C)NC(C)(C)C3)c2)n1

— ChEMBL document CHEMBL4649986, “Chemical probes and inhibitors of bromodomains outside the BET family” (Medchemcomm, 2016)
